Results: patent US20020015729A1, “COLONIC DELIVERY OF WEAK ACID DRUGS” (priority 1996, published 2002)

Assays:
[1] = Solubility of the drug in the colonic pH range; format: physicochemical; settings: pH 4.5 to 8.0
[2] = Dissolution of ridogrel and sodium ridogrel from hard gelatin capsules, USP apparatus 2, 100 rpm, 900 mL phosphate buffer; format: physicochemical; settings: 10 mg in size 2 hard gelatin capsule, pH 5, 6 and 7
Experimental: Into each of three size 2 hard gelatin capsules was weighed 10 mg of ridogrel. Into another three capsules was weighed 10 mg of the sodium ridogrel lyophilisate. The dissolution of ridogrel and sodium ridogrel into 900 mL of phosphate buffer at pH 5, 6 and 7 was tested (USP apparatus 2, 100 rpm).

| Structure (SMILES) | solubility in the colonic pH range [1] | dissolution rate as a function of pH [2] | dissolution rate as a function of pH ([2]; listed as sodium salt of ridogrel) |
| --- | --- | --- | --- |
| O=C(O)CCCCO/N=C(/c1cccnc1)c1cccc(C(F)(F)F)c1 [ridogrel, (E)-5-[[[3-pyridinyl[3-(trifluoromethyl)phenyl]methylene]amino]oxy]pentanoic acid] | low |  |  |
| O=C([O-])CCCCON=C(c1cccnc1)c1cccc(C(F)(F)F)c1.[Na+] [sodium ridogrel] |  | largely independent of pH | greatly improved dissolution rate |
